Test results taken from patent publication US20140315883A1, “6H-IMIDAZO[1,5-a]PYRROLO[2,3-e]PYRAZINE COMPOUNDS” (ABBVIE INC., priority 2013, published 2014).

Target: T1, Syk (Homo sapiens, UniProt P43405)
T1 construct: Purified Syk catalytic domain (aa 356-635 with a C-terminal His-tag purified in-house); His-tag (C); made in house
Assay: In vitro Syk kinase activity measured by trFRET
Format: biochemical
Conditions: Syk catalytic domain, 0.001 mM ATP
Method: In Vitro Syk Kinase Activity Measured by Time-Resolved Fluorescence Resonance Energy Transfer (trFRET)
After about 60 min incubation at rt, the reaction was quenched by addition of EDTA (final concentration: 100 mM) and developed by addition of revelation reagents (final approximate concentrations: 30 mM HEPES pH 7.0, 0.06% BSA, 0.006% Tween-20, 0.24 M KF, 80 ng/mL PT66K (europium labeled anti-phosphotyrosine antibody cat #61T66KLB Cisbio, Bedford, Mass.) and 0.6 μg/mL SAXL (Phycolink streptavidin-allophycocyanin acceptor, cat #PJ25S, Prozyme, San Leandro, Calif.). The developed reaction was incubated in the dark either at about 4° C. for about 14 h or for about 60 min at rt, then read via a time-resolved fluorescence detector (Rubystar, BMG) using a 337 nm laser for excitation and monitoring emission wavelengths at 665 nm. Within the linear range of the assay, the observed signal at 665 nm was directly related to phosphorylated product and can be used to calculate the IC50 values.

CC(=O)N1C[C@H](O)C[C@@H]1c1nc(-c2ccc(O[C@H](C)C3CC3)cc2)c2cnc3[nH]ccc3n12 (single isomer, unassigned) [Example #2]
IC50: 0.03 to 0.1 µM

CC(=O)N1C[C@H](O)C[C@@H]1c1nc(-c2ccsc2)c2cnc3[nH]ccc3n12 [A.1.1]
IC50: 0.01 to 0.03 µM

CCOc1ccc(-c2nc([C@H]3C[C@@H](O)CN3C(C)=O)n3c2cnc2[nH]ccc23)cc1 [A.1.2, 1-((2R,4R)-2-(3-(4-ethoxyphenyl)-6H-imidazo[1,5-a]pyrrolo[2,3-e]pyrazin-1-yl)-4-hydroxypyrrolidin-1-yl)ethanone]
IC50: 0.01 to 0.03 µM

CC(=O)N1C[C@H](O)C[C@@H]1c1nc(-c2ccc(OCCn3nccn3)cc2)c2cnc3[nH]ccc3n12 [A.1.3, 1-((2R,4R)-2-(3-(4-(2-(2H-1,2,3-triazol-2-yl)ethoxy)phenyl)-6H-imidazo[1,5-a]pyrrolo[2,3-e]pyrazin-1-yl)-4-hydroxypyrrolidin-1-yl)ethanone]
IC50: 0.03 to 0.1 µM

CC(=O)N1C[C@H](O)C[C@@H]1c1nc(-c2ccc(C(F)F)cc2)c2cnc3[nH]ccc3n12 [A.1.5, 1-((2R,4R)-2-(3-(4-(difluoromethyl)phenyl)-6H-imidazo[1,5-a]pyrrolo[2,3-e]pyrazin-1-yl)-4-hydroxypyrrolidin-1-yl)ethanone]
IC50: 0.03 to 0.1 µM

CC(=O)N1C[C@H](O)C[C@@H]1c1nc(-c2ccc(C3(C)COC3)cc2)c2cnc3[nH]ccc3n12 [A.1.6]
IC50: < 0.01 µM

CC(=O)N1C[C@H](O)C[C@@H]1c1nc(-c2ccc(OCC3(C)COC3)cc2)c2cnc3[nH]ccc3n12 [D.1.1, 1-((2R,4R)-4-hydroxy-2-(3-(4-((3-methyloxetan-3-yl)methoxy)phenyl)-6H-imidazo[1,5-a]pyrrolo[2,3-e]pyrazin-1-yl)pyrrolidin-1-yl)ethanone]
IC50: 0.01 to 0.03 µM

CC(=O)N1C[C@H](O)C[C@@H]1c1nc(-c2csc(CO)c2)c2cnc3[nH]ccc3n12 [D.1.2, 1-((2R,4R)-4-hydroxy-2-(3-(5-(hydroxymethyl)thiophen-3-yl)-6H-imidazo[1,5-a]pyrrolo[2,3-e]pyrazin-1-yl)pyrrolidin-1-yl)ethanone]
IC50: 0.01 to 0.03 µM

CC(=O)N1C[C@H](O)C[C@@H]1c1nc(-c2ccc(OCC3CC3)cc2)c2cnc3[nH]ccc3n12 [D.1.3, 1-((2R,4R)-2-(3-(4-(cyclopropylmethoxy)phenyl)-6H-imidazo[1,5-a]pyrrolo[2,3-e]pyrazin-1-yl)-4-hydroxypyrrolidin-1-yl)ethanone]
IC50: 0.01 to 0.03 µM

COc1ccc(-c2nc([C@H]3C[C@@H](O)CN3C(=O)CF)n3c2cnc2[nH]ccc23)cc1 [E.1.1]
IC50: 0.01 to 0.03 µM

COCCOc1ccc(-c2nc([C@H]3C[C@@H](O)CN3C(=O)CF)n3c2cnc2[nH]ccc23)cc1 [E.1.2, 2-fluoro-1-((2R,4R)-4-hydroxy-2-(3-(4-(2-methoxyethoxy)phenyl)-6H-imidazo[1,5-a]pyrrolo[2,3-e]pyrazin-1-yl)pyrrolidin-1-yl)ethanone]
IC50: 0.01 to 0.03 µM

CNc1ccc(-c2nc([C@H]3C[C@@H](O)CN3C(C)=O)n3c2cnc2[nH]ccc23)cc1 [Example #1, 1-((2R,4R)-4-Hydroxy-2-(3-(4-(methylamino)phenyl)-6H-imidazo[1,5-a]pyrrolo[2,3-e]pyrazin-1-yl)pyrrolidin-1-yl)ethanone]
IC50: 0.01 to 0.03 µM

COc1ccc(-c2nc([C@H]3C[C@@H](O)CN3C(C)=O)n3c2cnc2[nH]ccc23)s1 [Example #3, 1-((2R,4R)-4-Hydroxy-2-(3-(5-methoxythiophen-2-yl)-6H-imidazo[1,5-a]pyrrolo[2,3-e]pyrazin-1-yl)pyrrolidin-1-yl)ethanone]
IC50: 0.01 to 0.03 µM

CC(=O)N1C[C@H](O)C[C@@H]1c1nc(-c2cnc(C(C)(C)C)s2)c2cnc3[nH]ccc3n12 [Example #4, 1-((2R,4R)-2-(3-(2-(tert-Butyl)thiazol-5-yl)-6H-imidazo[1,5-a]pyrrolo[2,3-e]pyrazin-1-yl)-4-hydroxypyrrolidin-1-yl)ethanone]
IC50: 0.03 to 0.1 µM

CC(=O)N1C[C@H](O)C[C@@H]1c1nc(-c2ccc(N3CCO[C@H](C)C3)cc2)c2cnc3[nH]ccc3n12 [Example #5 (R), 1-((2R,4R)-4-hydroxy-2-(3-(4-((R)-2-methylmorpholino)phenyl)-6H-imidazo[1,5-a]pyrrolo[2,3-e]pyrazin-1-yl)pyrrolidin-1-yl)ethanone]
IC50: < 0.01 µM

CC(=O)N1C[C@H](O)C[C@@H]1c1nc(-c2ccc(N3CCO[C@@H](C)C3)cc2)c2cnc3[nH]ccc3n12 [Example #5 (S), 1-((2R,4R)-4-Hydroxy-2-(3-(4-((S)-2-methylmorpholino)phenyl)-6H-imidazo[1,5-a]pyrrolo[2,3-e]pyrazin-1-yl)pyrrolidin-1-yl)ethanone]
IC50: < 0.01 µM

COCc1ccc(-c2nc([C@H]3C[C@@H](O)CN3C(C)=O)n3c2cnc2[nH]ccc23)cc1 [Example #7, 1-((2R,4R)-4-Hydroxy-2-(3-(4-(methoxymethyl)phenyl)-6H-imidazo[1,5-a]pyrrolo[2,3-e]pyrazin-1-yl)pyrrolidin-1-yl)ethanone]
IC50: 0.03 to 0.1 µM

CC(=O)N1C[C@H](O)C[C@@H]1c1nc(-c2ccc(Cn3nccn3)cc2)c2cnc3[nH]ccc3n12 [Example #8, 1-((2R,4R)-2-(3-(4-((2H-1,2,3-Triazol-2-yl)methyl)phenyl)-6H-imidazo[1,5-a]pyrrolo[2,3-e]pyrazin-1-yl)-4-hydroxypyrrolidin-1-yl)ethanone]
IC50: 0.03 to 0.1 µM

CC(=O)N1C[C@H](O)C[C@@H]1c1nc(-c2ccc(OCC(F)(F)F)cc2)c2cnc3[nH]ccc3n12 [Example #9, 1-((2R,4R)-4-Hydroxy-2-(3-(4-(2,2,2-trifluoroethoxy)phenyl)-6H-imidazo[1,5-a]pyrrolo[2,3-e]pyrazin-1-yl)pyrrolidin-1-yl)ethanone]
IC50: 0.03 to 0.1 µM

CC(=O)N1C[C@H](O)C[C@@H]1c1nc(-c2ccc(NC(C)C)cc2)c2cnc3[nH]ccc3n12 [Example #10, 1-((2R,4R)-4-Hydroxy-2-(3-(4-(isopropylamino)phenyl)-6H-imidazo[1,5-a]pyrrolo[2,3-e]pyrazin-1-yl)pyrrolidin-1-yl)ethanone]
IC50: 0.01 to 0.03 µM

CC(=O)N1C[C@H](O)C[C@@H]1c1nc(-c2ccc(NC(C)C)cc2)c2cnc3[nH]cc(C)c3n12 [Example #11, 1-((2R,4R)-4-Hydroxy-2-(3-(4-(isopropylamino)phenyl)-8-methyl-6H-imidazo[1,5-a]pyrrolo[2,3-e]pyrazin-1-yl)pyrrolidin-1-yl)ethanone]
IC50: 0.03 to 0.1 µM

CC(=O)N1C[C@H](O)C[C@@H]1c1nc(-c2ccc(C(F)(F)F)cc2)c2cnc3[nH]ccc3n12 [Example #A.1.4, 1-((2R,4R)-4-hydroxy-2-(3-(4-(trifluoromethyl)phenyl)-6H-imidazo[1,5-a]pyrrolo[2,3-e]pyrazin-1-yl)pyrrolidin-1-yl)ethanone]
IC50: 0.03 to 0.1 µM

CCNc1ccc(-c2nc([C@H]3C[C@@H](O)CN3C(C)=O)n3c2cnc2[nH]ccc23)cc1 [Example #F.1, 1-((2R,4R)-2-(3-(4-(ethylamino)phenyl)-6H-imidazo[1,5-a]pyrrolo[2,3-e]pyrazin-1-yl)-4-hydroxypyrrolidin-1-yl)ethanone]
IC50: 0.01 to 0.03 µM

COc1ccc(-c2nc([C@H]3C[C@@H](O)CN3C(C)=O)n3c2cnc2[nH]ccc23)cc1 [Example #F.1.4, 1-((2R,4R)-4-hydroxy-2-(3-(4-methoxyphenyl)-6H-imidazo[1,5-a]pyrrolo[2,3-e]pyrazin-1-yl)pyrrolidin-1-yl)ethanone]
IC50: 0.01 to 0.03 µM

CC(=O)N1C[C@H](O)C[C@@H]1c1nc(-c2ccc(C(=O)N3CCC(F)(F)CC3)cc2)c2cnc3[nH]ccc3n12 [F.1.1, 1-((2R,4R)-2-(3-(4-(4,4-difluoropiperidine-1-carbonyl)phenyl)-6H-imidazo[1,5-a]pyrrolo[2,3-e]pyrazin-1-yl)-4-hydroxypyrrolidin-1-yl)ethanone]
IC50: > 0.1 µM

CC(=O)N1C[C@H](O)C[C@@H]1c1nc(-c2ccc(N3CCCCC3)cc2)c2cnc3[nH]ccc3n12 [F.1.1.13, 1-((2R,4R)-4-hydroxy-2-(3-(4-(piperidin-1-yl)phenyl)-6H-imidazo[1,5-a]pyrrolo[2,3-e]pyrazin-1-yl)pyrrolidin-1-yl)ethanone]
IC50: < 0.01 µM

CO[C@H](C)c1ccc(-c2nc([C@H]3C[C@@H](O)CN3C(C)=O)n3c2cnc2[nH]ccc23)cc1 [F.1.2, 1-((2R,4R)-4-hydroxy-2-(3-(4-((R)-1-methoxyethyl)phenyl)-6H-imidazo[1,5-a]pyrrolo[2,3-e]pyrazin-1-yl)pyrrolidin-1-yl)ethanone]
IC50: 0.01 to 0.03 µM

CO[C@@H](C)c1ccc(-c2nc([C@H]3C[C@@H](O)CN3C(C)=O)n3c2cnc2[nH]ccc23)cc1 [F.1.3, 1-((2R,4R)-4-hydroxy-2-(3-(4-((S)-1-methoxyethyl)phenyl)-6H-imidazo[1,5-a]pyrrolo[2,3-e]pyrazin-1-yl)pyrrolidin-1-yl)ethanone]
IC50: < 0.01 µM

CC(=O)N1C[C@H](O)C[C@@H]1c1nc(-c2ccc(C(C)(C)O)c(F)c2)c2cnc3[nH]ccc3n12 [F.1.5, 1-((2R,4R)-2-(3-(3-fluoro-4-(2-hydroxypropan-2-yl)phenyl)-6H-imidazo[1,5-a]pyrrolo[2,3-e]pyrazin-1-yl)-4-hydroxypyrrolidin-1-yl)ethanone]
IC50: 0.01 to 0.03 µM

CC(=O)N1C[C@H](O)C[C@@H]1c1nc(-c2ccc3c(c2)OCCO3)c2cnc3[nH]ccc3n12 [F.1.6, 1-((2R,4R)-2-(3-(2,3-dihydrobenzo[b][1,4]dioxin-6-yl)-6H-imidazo[1,5-a]pyrrolo[2,3-e]pyrazin-1-yl)-4-hydroxypyrrolidin-1-yl)ethanone]
IC50: 0.03 to 0.1 µM
